Columns and labels:
[1] = target: allosteric site of the mGluR5 receptor (Homo sapiens, UniProt P41594); assay: PDSP binding at the allosteric site of the mGluR5 receptor; conditions: binding affinity at allosteric site; type of constant not given
[2] = target: L-type Voltage gated calcium Channel (VGCC) (Rattus norvegicus, UniProt P22002); assay: PDSP binding at the L-type voltage gated calcium channel; conditions: for VGCC (IC50, nM): PDSP screening
L-type Voltage gated calcium Channel (VGCC), sequence (P22002 whole entry): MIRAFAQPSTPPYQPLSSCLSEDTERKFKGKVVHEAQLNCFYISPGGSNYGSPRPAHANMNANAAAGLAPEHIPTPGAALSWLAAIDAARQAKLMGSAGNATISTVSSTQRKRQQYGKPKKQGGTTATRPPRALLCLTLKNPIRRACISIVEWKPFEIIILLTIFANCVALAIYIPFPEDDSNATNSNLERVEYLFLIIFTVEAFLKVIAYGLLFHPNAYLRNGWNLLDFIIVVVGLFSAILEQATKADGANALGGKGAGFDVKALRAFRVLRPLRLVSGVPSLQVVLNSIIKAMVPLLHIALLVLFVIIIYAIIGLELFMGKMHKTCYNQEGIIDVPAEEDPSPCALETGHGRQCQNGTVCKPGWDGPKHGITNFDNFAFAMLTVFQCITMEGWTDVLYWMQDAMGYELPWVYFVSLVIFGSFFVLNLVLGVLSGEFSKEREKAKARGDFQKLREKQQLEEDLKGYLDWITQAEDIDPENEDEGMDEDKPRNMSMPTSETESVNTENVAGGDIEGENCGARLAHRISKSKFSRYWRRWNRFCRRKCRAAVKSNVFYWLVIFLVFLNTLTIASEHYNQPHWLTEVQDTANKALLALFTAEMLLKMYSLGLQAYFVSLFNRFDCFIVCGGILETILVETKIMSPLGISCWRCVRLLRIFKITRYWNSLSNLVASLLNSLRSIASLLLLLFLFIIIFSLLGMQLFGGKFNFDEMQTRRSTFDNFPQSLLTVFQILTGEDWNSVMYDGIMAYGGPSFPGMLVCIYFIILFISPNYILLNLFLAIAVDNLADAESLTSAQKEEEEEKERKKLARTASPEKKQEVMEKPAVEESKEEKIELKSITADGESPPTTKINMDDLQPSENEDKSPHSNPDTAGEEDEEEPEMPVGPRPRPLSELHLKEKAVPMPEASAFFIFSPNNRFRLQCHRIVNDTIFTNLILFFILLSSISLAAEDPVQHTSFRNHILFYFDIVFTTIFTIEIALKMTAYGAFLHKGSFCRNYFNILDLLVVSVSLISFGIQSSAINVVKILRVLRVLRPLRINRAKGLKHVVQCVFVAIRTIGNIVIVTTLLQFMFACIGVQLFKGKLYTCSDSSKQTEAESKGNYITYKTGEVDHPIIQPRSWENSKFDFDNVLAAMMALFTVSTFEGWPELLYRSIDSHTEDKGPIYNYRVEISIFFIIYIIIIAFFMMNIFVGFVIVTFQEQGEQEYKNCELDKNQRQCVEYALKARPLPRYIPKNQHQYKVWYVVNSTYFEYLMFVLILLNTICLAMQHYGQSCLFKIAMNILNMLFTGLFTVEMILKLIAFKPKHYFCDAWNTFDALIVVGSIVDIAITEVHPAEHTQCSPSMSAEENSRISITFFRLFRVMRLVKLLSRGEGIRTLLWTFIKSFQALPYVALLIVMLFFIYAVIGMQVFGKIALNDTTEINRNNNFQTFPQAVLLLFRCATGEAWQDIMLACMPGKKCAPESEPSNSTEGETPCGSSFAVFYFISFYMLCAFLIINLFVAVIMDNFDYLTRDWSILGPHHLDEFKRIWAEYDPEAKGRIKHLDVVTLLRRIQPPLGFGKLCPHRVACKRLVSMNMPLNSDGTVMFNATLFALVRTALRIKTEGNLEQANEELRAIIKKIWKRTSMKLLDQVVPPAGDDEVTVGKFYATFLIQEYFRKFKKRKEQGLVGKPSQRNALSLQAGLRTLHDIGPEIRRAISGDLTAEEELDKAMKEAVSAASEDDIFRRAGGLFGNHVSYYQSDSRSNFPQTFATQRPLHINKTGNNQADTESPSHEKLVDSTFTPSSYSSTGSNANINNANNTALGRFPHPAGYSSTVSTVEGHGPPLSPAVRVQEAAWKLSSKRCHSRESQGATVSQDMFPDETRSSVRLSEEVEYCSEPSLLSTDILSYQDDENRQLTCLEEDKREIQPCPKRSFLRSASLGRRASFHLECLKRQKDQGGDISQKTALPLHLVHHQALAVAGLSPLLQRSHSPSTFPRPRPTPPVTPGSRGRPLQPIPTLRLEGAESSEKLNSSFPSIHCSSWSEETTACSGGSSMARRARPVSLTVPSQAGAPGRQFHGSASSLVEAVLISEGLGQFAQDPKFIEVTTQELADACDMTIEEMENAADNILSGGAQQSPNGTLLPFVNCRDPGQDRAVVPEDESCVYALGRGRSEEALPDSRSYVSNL

allosteric site of the mGluR5 receptor, sequence (P41594 21-1212): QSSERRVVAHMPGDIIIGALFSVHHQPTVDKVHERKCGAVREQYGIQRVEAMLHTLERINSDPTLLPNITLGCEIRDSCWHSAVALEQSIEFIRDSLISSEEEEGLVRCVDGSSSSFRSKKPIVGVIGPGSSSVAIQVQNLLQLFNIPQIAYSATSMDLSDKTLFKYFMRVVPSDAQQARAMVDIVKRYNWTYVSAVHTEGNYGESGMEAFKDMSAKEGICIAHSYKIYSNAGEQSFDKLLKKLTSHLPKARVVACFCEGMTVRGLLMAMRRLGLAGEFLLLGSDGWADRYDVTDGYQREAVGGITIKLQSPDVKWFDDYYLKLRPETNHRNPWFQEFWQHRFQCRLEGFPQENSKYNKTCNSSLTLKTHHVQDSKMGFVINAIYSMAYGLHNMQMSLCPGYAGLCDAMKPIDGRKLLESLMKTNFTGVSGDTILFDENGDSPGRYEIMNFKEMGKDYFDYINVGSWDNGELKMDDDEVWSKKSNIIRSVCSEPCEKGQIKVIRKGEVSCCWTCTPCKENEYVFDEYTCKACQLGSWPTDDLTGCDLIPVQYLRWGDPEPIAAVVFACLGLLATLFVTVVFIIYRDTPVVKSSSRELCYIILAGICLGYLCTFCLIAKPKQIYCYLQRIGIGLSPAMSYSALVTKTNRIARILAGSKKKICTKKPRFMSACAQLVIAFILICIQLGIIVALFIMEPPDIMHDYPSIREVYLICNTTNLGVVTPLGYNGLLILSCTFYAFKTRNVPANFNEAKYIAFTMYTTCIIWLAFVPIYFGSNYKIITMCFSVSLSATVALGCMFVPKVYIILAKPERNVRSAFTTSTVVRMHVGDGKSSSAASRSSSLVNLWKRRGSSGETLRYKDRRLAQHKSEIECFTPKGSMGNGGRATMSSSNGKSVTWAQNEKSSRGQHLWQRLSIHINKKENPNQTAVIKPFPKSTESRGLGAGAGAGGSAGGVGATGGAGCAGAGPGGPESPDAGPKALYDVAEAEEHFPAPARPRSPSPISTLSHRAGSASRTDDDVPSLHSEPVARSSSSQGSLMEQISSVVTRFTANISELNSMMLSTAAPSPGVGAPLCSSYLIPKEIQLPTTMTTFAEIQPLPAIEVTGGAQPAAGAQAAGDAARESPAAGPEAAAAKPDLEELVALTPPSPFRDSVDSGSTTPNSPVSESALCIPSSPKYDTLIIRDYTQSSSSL

SMILES	mGluR5 [1] [µM]	mGluR5 (nM) [1]	further results
CCOC(=O)C1=C(C)NC(C)=C(C(=O)OCC)C1c1c(-c2ccccc2Br)noc1C [1b, 4-[3-(o-Bromo-phenyl)-5-methyl-isoxazol-4-yl]-2,6-dimethyl-1,4-dihydro-pyridine-3,5-dicarboxylic acid diethyl ester]	1.524		
CCOC(=O)C1=C(C)NC(C)=C(C(=O)OCC)C1c1c(-c2cccc(Br)c2)noc1C [1c, 4-[3-(m-Bromo-phenyl)-5-methyl-isoxazol-4-yl]-2,6-dimethyl-1,4-dihydro-pyridine-3,5-dicarboxylic acid diethyl ester]		>10,000 nM	
CCOC(=O)C1=C(C)NC(C)=C(C(=O)OCc2cn(CCOCCOCCOCCOCCOCCn3cc(COC(=O)C4=C(C)NC(C)=C(C(=O)OCC)C4c4c(-c5ccccc5)noc4C)nn3)nn2)C1c1c(-c2ccccc2)noc1C (stereo not shown) [4a, 3-(1-{17-[4-({[5-(Ethoxycarbonyl)-2,6-dimethyl-4-(5-methyl-3-phenyl-1,2-oxazol-4-yl)-1,4-dihydropyridin-3-yl]carbonyloxy}methyl)-1H-1,2,3-triazol-1-yl]-3,6,9,12,15-pentaoxaheptadecan-1-yl}-1H-1,2,3-triazol-4-yl)methyl 5-ethyl 2,6-dimethyl-4-(5-methyl-3-phenyl-1,2-oxazol-4-yl)-1,4-dihydropyridine-3,5-dicarboxylate]		>10,000 nM	
CCOC(=O)C1=C(C)NC(C)=C(C(=O)OCc2cn(CCc3ccccc3)nn2)C1c1c(-c2ccc(Br)cc2)noc1C (stereo not shown) [compound 5, 4-[3-(p-Bromo-phenyl)-5-methyl-isoxazol-4-yl]-2,6-dimethyl-1,4-dihydro-pyridine 3,5-dicarboxylic acid 3-ethyl ester 5-(1-phenethyl-1H-[1,2,3]triazol-4-ylmethyl) ester]	1.972		
CCOC(=O)c1c(C)nc(C)c(C(=O)OCC)c1-c1c(-c2ccccc2)noc1C [compound 6, 2,6-dimethyl-4-(5-methyl-3-phenyl-isoxazol-4-yl)-pyridine-3,5-dicarboxylic acid diethyl ester]			VGCC (IC50, nM) [2]: essentially bereft of activity

Continued, in another order:

mGluR5 [1] [µM]	mGluR5 (nM) [1]	SMILES	further results
8.638		CCOC(=O)C1=C(C)NC(C)=C(C(=O)OCc2cn(CCOCCOCCOCCOCCOCCn3cc(COC(=O)C4=C(C)NC(C)=C(C(=O)OCC)C4c4c(-c5cccc(Br)c5)noc4C)nn3)nn2)C1c1c(-c2cccc(Br)c2)noc1C (stereo not shown) [4c, 3-[1-(17-{4-[({4-[3-(m-bromophenyl)-5-methyl-1,2-oxazol-4-yl]-5-(ethoxycarbonyl)-2,6-dimethyl-1,4-dihydropyridin-3-yl}carbonyloxy)methyl]-1H-1,2,3-triazol-1-yl}-3,6,9,12,15-pentaoxaheptadecan-1-yl)-1H-1,2,3-triazol-4-yl]methyl 5-ethyl 4-[3-(m-bromophenyl)-5-methyl-1,2-oxazol-4-yl]-2,6-dimethyl-1,4-dihydropyridine-3,5-dicarboxylate]	
4.858		CCOC(=O)C1=C(C)NC(C)=C(C(=O)OCc2cn(CCOCCOCCOCCOCCOCCn3cc(COC(=O)C4=C(C)NC(C)=C(C(=O)OCC)C4c4c(-c5ccccc5Br)noc4C)nn3)nn2)C1c1c(-c2ccccc2Br)noc1C (stereo not shown) [4b, 3-[1-(17-{4-[({4-[3-(o-Bromophenyl)-5-methyl-1,2-oxazol-4-yl]-5-(ethoxycarbonyl)-2,6-dimethyl-1,4-dihydropyridin-3-yl}carbonyloxy)methyl]-1H-1,2,3-triazol-1-yl}-3,6,9,12,15-pentaoxaheptadecan-1-yl)-1H-1,2,3-triazol-4-yl]methyl 5-ethyl 4-[3-(o-bromophenyl)-5-methyl-1,2-oxazol-4-yl]-2,6-dimethyl-1,4-dihydropyridine-3,5-dicarboxylate]	VGCC (IC50, nM) [2]: essentially abolished
	>10,000 nM	CCOC(=O)C1=C(C)NC(C)=C(C(=O)OCC)C1c1c(-c2ccc(Br)cc2)noc1C [1d, 4-[3-(p-bromo-phenyl)-5-methyl-isoxazol-4-yl]-2,6-dimethyl-1,4-dihydro-pyridine-3,5-dicarboxylic acid diethyl ester]	VGCC potency ratio of 1d versus o-Br 1b ([2]; fold more potent than 1b): over 25 times

From publication PMC5813499 (Bioorganic & medicinal chemistry, 2017)
